Columns and labels:
INSR = INSR (Homo sapiens, UniProt P06213); assay: SAFETYScan Kinases Binding, Inhibitor
Text: (§1) Supplement jm1c02175_si_002.xlsx, sheet "SAFETYScan" | column: RC50 (uM); Max Response

LCK = LCK (Homo sapiens, UniProt P06239); assay: SAFETYScan Kinases Binding, Inhibitor
Text: as §1

VEGFR2 = VEGFR2 (Homo sapiens, UniProt P35968); assay: SAFETYScan Kinases Binding, Inhibitor
Text: as §1

ROCK1 = ROCK1 (Homo sapiens, UniProt Q13464); assay: SAFETYScan Kinases Binding, Inhibitor
Sequence of ROCK1 (Q13464 whole entry, species assumed): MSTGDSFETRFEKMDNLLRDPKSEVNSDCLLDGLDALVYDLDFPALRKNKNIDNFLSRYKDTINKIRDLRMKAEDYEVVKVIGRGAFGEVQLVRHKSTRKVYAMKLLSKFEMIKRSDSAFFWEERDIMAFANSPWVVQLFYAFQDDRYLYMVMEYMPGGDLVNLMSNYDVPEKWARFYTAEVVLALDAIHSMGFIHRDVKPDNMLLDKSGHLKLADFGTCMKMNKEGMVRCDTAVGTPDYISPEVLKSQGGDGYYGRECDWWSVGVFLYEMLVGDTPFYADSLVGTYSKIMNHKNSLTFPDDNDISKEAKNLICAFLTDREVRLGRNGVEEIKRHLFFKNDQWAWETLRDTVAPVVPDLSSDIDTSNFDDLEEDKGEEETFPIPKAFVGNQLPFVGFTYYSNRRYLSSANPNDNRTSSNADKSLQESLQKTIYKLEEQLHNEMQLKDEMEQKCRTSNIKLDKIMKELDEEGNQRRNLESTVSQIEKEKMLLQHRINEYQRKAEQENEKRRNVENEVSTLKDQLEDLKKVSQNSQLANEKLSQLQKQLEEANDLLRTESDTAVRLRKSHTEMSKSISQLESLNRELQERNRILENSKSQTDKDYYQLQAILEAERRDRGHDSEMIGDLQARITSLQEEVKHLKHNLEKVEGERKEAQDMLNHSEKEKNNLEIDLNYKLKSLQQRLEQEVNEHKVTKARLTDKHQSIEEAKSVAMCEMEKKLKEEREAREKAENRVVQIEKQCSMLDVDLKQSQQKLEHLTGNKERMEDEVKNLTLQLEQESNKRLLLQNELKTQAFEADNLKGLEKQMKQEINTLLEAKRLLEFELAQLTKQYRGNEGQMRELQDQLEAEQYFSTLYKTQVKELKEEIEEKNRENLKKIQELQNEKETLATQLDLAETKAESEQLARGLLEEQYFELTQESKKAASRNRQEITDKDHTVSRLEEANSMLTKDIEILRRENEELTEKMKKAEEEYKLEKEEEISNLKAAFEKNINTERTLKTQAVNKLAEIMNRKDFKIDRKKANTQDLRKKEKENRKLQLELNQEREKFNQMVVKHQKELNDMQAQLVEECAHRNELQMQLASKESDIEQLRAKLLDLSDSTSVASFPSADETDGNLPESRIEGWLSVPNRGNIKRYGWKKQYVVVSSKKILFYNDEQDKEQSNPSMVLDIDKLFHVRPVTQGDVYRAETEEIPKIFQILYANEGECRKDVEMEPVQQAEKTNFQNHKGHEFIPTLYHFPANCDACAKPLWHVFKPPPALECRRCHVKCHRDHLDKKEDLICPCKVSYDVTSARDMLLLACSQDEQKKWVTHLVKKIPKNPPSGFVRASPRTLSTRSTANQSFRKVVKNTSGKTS
Text: as §1

CHRM2 [1] = target: T1, CHRM2 (Homo sapiens, UniProt P08172); assay: SAFETYScan GPCR cAMP, Agonist; type: cell-based
T1 construct: expressed in transfected cells
T1 sequence (P08172 1-466): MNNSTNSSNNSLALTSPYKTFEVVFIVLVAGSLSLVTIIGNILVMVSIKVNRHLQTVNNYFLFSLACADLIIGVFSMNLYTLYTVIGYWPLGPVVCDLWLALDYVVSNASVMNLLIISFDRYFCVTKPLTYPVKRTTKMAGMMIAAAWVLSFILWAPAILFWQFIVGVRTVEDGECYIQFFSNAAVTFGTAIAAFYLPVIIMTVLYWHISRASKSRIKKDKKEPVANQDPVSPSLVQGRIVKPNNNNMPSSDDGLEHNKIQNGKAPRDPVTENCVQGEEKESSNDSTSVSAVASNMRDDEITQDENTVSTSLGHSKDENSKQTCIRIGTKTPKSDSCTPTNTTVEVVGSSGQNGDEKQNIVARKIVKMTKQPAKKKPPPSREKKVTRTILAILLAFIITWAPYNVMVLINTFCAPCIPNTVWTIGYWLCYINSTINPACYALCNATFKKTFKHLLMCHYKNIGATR
Text: as §1

CNR2 = target: T2, CNR2 (Homo sapiens, UniProt P34972); assay: SAFETYScan GPCR cAMP, Agonist; type: cell-based
T2 construct: expressed in transfected cells
Text: as §1

CNR1 [2] = target: T3, CNR1 (Homo sapiens, UniProt P21554); assay: SAFETYScan GPCR cAMP, Agonist; type: cell-based
T3 construct: expressed in transfected cells
T3 sequence (P21554 whole entry): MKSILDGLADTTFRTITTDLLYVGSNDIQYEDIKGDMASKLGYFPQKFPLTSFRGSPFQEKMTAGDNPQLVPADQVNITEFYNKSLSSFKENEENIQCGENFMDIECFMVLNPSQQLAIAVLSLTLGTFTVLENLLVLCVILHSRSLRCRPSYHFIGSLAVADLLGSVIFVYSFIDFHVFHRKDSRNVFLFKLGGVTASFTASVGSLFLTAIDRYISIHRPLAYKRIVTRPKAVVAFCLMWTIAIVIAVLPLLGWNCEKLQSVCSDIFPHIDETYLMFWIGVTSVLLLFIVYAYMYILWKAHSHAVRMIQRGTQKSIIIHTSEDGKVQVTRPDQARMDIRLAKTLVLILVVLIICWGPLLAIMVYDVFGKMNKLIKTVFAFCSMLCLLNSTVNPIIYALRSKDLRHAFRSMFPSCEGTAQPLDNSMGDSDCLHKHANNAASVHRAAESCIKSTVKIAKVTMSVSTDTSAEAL
Text: as §1

DRD1 [3] = target: T4, DRD1 (Homo sapiens, UniProt P21728); assay: SAFETYScan GPCR cAMP, Agonist; type: cell-based
T4 construct: expressed in transfected cells
T4 sequence (P21728 whole entry): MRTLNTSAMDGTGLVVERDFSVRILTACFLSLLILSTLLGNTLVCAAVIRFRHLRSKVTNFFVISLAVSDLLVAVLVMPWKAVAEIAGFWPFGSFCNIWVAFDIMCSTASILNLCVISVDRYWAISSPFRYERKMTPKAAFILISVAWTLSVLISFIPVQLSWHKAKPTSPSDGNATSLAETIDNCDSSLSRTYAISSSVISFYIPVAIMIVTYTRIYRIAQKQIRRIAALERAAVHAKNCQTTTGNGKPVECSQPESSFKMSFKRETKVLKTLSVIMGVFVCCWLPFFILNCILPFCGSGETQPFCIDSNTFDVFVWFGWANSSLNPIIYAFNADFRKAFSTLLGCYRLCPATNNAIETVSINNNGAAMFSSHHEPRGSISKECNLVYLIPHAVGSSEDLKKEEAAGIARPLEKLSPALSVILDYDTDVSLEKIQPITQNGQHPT
Text: as §1

CHRM2 [4] = target: T1, CHRM2; assay: SAFETYScan GPCR cAMP, Antagonist; type: cell-based
Text: as §1

ADRA2A = target: T5, ADRA2A (Homo sapiens, UniProt P08913); assay: SAFETYScan GPCR cAMP, Antagonist; type: cell-based
T5 construct: expressed in transfected cells
T5 sequence (P08913 1-465): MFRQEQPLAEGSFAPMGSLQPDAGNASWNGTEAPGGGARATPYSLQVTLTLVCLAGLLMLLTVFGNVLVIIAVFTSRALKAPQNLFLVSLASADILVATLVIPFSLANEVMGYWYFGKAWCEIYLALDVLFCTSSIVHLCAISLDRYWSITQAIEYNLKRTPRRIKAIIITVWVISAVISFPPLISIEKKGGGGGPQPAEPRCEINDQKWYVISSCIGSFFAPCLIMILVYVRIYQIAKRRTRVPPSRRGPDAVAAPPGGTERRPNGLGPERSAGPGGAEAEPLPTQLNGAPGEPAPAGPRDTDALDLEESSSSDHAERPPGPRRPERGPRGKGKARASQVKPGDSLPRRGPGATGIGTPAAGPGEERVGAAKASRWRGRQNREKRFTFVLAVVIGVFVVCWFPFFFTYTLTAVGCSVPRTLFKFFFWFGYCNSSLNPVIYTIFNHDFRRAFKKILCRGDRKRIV
Text: as §1

ADRB1 = target: T6, ADRB1 (Homo sapiens, UniProt P08588); assay: SAFETYScan GPCR cAMP, Antagonist; type: cell-based
T6 construct: expressed in transfected cells
Text: as §1

OPRM1 = OPRM1 (Homo sapiens, UniProt P35372); assay: SAFETYScan GPCR cAMP, Antagonist; type: cell-based
Sequence of OPRM1 (P35372 whole entry, species assumed): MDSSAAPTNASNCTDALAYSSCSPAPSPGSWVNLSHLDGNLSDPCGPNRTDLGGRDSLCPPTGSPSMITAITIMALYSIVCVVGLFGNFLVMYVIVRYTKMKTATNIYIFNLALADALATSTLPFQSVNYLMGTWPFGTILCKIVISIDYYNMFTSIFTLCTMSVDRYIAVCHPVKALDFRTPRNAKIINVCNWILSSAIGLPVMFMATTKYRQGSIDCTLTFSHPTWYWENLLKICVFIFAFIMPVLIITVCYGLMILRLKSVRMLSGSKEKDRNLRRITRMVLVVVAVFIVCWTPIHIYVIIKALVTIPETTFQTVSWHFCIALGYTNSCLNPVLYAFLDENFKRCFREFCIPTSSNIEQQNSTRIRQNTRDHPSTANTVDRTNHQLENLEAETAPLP
Text: as §1

DRD2S = target: T7, DRD2S (Homo sapiens, UniProt P14416); assay: SAFETYScan GPCR cAMP, Antagonist; type: cell-based
T7 construct: expressed in transfected cells
Text: as §1

OPRK1 = OPRK1 (Homo sapiens, UniProt P41145); assay: SAFETYScan GPCR cAMP, Antagonist; type: cell-based
Text: as §1

CNR1 [5] = target: T3, CNR1; assay: SAFETYScan GPCR cAMP, Antagonist; type: cell-based
Text: as §1

ADRB2 = target: T8, ADRB2 (Homo sapiens, UniProt P07550); assay: SAFETYScan GPCR cAMP, Antagonist; type: cell-based
T8 construct: expressed in transfected cells
T8 sequence (P07550 whole entry): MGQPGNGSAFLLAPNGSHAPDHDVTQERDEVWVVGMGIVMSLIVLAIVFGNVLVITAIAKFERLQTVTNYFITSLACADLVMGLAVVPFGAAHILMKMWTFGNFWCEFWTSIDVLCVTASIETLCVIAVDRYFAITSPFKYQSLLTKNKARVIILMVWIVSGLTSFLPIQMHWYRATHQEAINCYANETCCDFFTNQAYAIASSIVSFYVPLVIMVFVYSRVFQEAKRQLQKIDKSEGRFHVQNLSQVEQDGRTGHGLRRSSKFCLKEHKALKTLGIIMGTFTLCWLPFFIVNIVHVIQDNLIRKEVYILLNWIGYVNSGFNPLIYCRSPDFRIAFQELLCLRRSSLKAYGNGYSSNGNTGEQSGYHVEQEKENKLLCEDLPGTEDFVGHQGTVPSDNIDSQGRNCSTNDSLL
Text: as §1

HRH2 = target: T9, HRH2 (Homo sapiens, UniProt P25021); assay: SAFETYScan GPCR cAMP, Antagonist; type: cell-based
T9 construct: expressed in transfected cells
T9 sequence (P25021 whole entry): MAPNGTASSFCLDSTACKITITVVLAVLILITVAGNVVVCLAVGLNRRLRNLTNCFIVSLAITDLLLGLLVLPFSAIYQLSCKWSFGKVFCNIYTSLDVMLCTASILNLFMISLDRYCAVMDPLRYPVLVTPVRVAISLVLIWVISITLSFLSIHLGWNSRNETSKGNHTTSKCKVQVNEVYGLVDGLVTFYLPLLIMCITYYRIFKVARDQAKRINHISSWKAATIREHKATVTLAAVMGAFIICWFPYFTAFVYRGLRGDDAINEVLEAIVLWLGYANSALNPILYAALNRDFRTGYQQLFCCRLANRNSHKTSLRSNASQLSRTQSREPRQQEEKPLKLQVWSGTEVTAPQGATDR
Text: as §1

OPRD1 = OPRD1 (Homo sapiens, UniProt P41143); assay: SAFETYScan GPCR cAMP, Antagonist; type: cell-based
Text: as §1

HTR1B = target: T10, HTR1B (Homo sapiens, UniProt P28222); assay: SAFETYScan GPCR cAMP, Antagonist; type: cell-based
T10 construct: expressed in transfected cells
Text: as §1

HTR1A = target: T11, HTR1A (Homo sapiens, UniProt P08908); assay: SAFETYScan GPCR cAMP, Antagonist; type: cell-based
T11 construct: expressed in transfected cells
T11 sequence (P08908 1-422): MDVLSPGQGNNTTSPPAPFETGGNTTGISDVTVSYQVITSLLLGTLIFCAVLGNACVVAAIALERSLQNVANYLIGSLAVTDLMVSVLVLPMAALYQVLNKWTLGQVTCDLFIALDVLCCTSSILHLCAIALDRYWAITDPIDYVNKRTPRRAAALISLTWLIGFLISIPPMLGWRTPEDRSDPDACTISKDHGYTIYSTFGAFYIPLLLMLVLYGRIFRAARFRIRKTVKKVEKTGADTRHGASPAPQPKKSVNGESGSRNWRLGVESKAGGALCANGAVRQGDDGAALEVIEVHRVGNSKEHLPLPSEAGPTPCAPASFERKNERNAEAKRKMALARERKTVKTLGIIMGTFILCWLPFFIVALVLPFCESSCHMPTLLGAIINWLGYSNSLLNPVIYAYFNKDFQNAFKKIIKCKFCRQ
Text: as §1

DRD1 [6] = target: T4, DRD1; assay: SAFETYScan GPCR cAMP, Antagonist; type: cell-based
Text: as §1

Sequence of VEGFR2 (P35968 20-1356, species assumed): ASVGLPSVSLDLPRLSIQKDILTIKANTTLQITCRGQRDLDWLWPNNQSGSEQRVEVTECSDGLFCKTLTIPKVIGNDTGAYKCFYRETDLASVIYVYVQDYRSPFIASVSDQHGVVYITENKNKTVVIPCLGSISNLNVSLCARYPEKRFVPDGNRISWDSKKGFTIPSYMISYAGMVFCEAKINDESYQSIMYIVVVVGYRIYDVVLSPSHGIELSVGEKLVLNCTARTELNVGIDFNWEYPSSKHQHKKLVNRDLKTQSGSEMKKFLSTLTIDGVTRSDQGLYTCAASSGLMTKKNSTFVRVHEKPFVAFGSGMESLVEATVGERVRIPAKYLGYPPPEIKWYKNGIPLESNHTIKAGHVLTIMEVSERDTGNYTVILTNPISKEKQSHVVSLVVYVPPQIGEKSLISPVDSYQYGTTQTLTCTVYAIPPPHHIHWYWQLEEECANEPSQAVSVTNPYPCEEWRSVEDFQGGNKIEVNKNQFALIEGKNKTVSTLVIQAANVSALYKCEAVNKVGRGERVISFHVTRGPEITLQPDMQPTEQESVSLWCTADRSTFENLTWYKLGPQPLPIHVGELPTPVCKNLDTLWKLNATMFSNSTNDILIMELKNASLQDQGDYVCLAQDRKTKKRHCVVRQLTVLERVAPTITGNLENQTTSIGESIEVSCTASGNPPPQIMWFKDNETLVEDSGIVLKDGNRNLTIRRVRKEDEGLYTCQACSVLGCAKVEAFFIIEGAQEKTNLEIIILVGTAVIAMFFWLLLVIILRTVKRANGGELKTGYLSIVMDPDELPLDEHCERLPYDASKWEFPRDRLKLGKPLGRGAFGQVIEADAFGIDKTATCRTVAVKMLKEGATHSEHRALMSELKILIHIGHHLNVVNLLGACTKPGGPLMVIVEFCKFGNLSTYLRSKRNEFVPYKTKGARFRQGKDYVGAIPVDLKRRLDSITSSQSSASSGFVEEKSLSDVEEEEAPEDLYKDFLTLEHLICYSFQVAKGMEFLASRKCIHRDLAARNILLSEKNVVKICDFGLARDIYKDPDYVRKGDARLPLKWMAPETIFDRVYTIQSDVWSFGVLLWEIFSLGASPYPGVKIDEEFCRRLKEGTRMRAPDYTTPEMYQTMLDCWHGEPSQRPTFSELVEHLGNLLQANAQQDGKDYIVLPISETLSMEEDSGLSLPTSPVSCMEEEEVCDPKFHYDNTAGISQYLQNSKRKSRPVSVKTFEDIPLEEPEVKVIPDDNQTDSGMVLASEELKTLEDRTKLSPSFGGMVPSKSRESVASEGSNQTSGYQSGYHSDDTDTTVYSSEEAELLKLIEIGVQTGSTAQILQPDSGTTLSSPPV

Compound: C[C@H]1C[C@@H](O)CN(c2ncc(Cl)c(Nc3ccc4c(c3)c3c(c(=O)n4C)OCC(F)(F)[C@H](C4CC4)N3)n2)C1 [12a CCT373566, (S)-10-((5-Chloro-2-((3R,5S)-3-hydroxy-5-methylpiperidin-1-yl)pyrimidin-4-yl)amino)-2-cyclopropyl-3,3-difluoro-7-methyl-1,2,3,4-tetrahydro-[1,4]oxazepino[2,3-c]quinolin-6(7H)-one]
- Emax (INSR; read-out: Max Response): 0%
- IC50 (INSR; read-out: RC50 (IC50)): > 10 µM
- Emax (LCK; read-out: Max Response): 1.52%
- IC50 (LCK; read-out: RC50 (IC50)): > 10 µM
- Emax (VEGFR2; read-out: Max Response): 15.8%
- IC50 (VEGFR2; read-out: RC50 (IC50)): > 10 µM
- Emax (ROCK1; read-out: Max Response): 14.9%
- IC50 (ROCK1; read-out: RC50 (IC50)): > 10 µM
- Emax (CHRM2 [1]; read-out: Max Response): 15%
- EC50 (CHRM2 [1]; read-out: RC50 (EC50)): > 10 µM
- Emax (CNR2; read-out: Max Response): 0%
- EC50 (CNR2; read-out: RC50 (EC50)): > 10 µM
- Emax (CNR1 [2]; read-out: Max Response): 18.9%
- EC50 (CNR1 [2]; read-out: RC50 (EC50)): > 10 µM
- Emax (DRD1 [3]; read-out: Max Response): 0%
- EC50 (DRD1 [3]; read-out: RC50 (EC50)): > 10 µM
- Emax (CHRM2 [4]; read-out: Max Response): 30.1%
- IC50 (CHRM2 [4]; read-out: RC50 (IC50)): > 10 µM
- Emax (ADRA2A; read-out: Max Response): 0%
- IC50 (ADRA2A; read-out: RC50 (IC50)): > 10 µM
- Emax (ADRB1; read-out: Max Response): 57.3%
- IC50 (ADRB1; read-out: RC50 (IC50)): > 10 µM
- Emax (OPRM1; read-out: Max Response): 9.16%
- IC50 (OPRM1; read-out: RC50 (IC50)): > 10 µM
- Emax (DRD2S; read-out: Max Response): 28.7%
- IC50 (DRD2S; read-out: RC50 (IC50)): > 10 µM
- Emax (OPRK1; read-out: Max Response): 1.28%
- IC50 (OPRK1; read-out: RC50 (IC50)): > 10 µM
- Emax (CNR1 [5]; read-out: Max Response): 1.95%
- IC50 (CNR1 [5]; read-out: RC50 (IC50)): > 10 µM
- Emax (ADRB2; read-out: Max Response): 62.3%
- IC50 (ADRB2; read-out: RC50 (IC50)): 1.74 µM
- Emax (HRH2; read-out: Max Response): 46.3%
- IC50 (HRH2; read-out: RC50 (IC50)): > 10 µM
- Emax (OPRD1; read-out: Max Response): 0%
- IC50 (OPRD1; read-out: RC50 (IC50)): > 10 µM
- Emax (HTR1B; read-out: Max Response): 5.08%
- IC50 (HTR1B; read-out: RC50 (IC50)): > 10 µM
- Emax (HTR1A; read-out: Max Response): 13.8%
- IC50 (HTR1A; read-out: RC50 (IC50)): > 10 µM
- Emax (DRD1 [6]; read-out: Max Response): 51.9%
- IC50 (DRD1 [6]; read-out: RC50 (IC50)): 4.89 µM
